Square brackets hold non-standard residues; d marks the D form. Peptide text beside a SMILES is read from it.
Key:
Male Sprague-Dawley rats = test: Serum growth hormone levels in anaesthetized rats (peptide 1, BIM 23014C); type: in vivo, rat
Method: Evaluation in anaesthetized rats. Male Sprague-Dawley rats are anaesthetized with Sagatal and fitted so as to allow efficient intravenous treatment with control and test compounds as well as frequent blood sampling. Blood samples are tested for growth hormone (GH) levels by radioimmunoassay. Thirty minutes after the initiation of blood sampling, rats are given 5 μg, 25 μg or 50 μg of peptide 1.

[1] = target: T1, S. cerevisiae (yeast) cells expressing SRIF receptors (Rattus norvegicus, UniProt P30680); test: Yeast bioassay for SRIF antagonist activity (LY364 cells growing in response to SRIF, zone of growth inhibition); type: cell-based; settings: Sample type 4th iteration; 10 μL of 5 mg/mL on disk, SRIF 10 nM, read after 3 days
T1 construct: expressed in transfected cells; host or cells: S. cerevisiae strain LY364
T1 sequence (P30680 whole entry): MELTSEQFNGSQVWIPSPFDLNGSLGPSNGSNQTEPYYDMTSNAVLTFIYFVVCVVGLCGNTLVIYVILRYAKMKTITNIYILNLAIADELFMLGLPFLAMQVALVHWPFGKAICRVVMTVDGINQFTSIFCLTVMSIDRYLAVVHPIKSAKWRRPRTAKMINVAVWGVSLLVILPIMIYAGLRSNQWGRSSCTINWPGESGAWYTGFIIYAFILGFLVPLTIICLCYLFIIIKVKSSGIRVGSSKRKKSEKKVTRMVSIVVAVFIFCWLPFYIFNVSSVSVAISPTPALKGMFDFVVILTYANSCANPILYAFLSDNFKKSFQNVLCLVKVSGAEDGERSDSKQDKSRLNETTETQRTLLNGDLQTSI
From the text: SRIF antagonist assay using S. cerevisiae (yeast) cells expressing SRIF receptors that grow in response to SRIF
Agar plates containing LY364 cells that are growing in the presence of added SRIF are the basis for a sensitive SRIF antagonist assay, whereby zones of growth inhibition result from the addition of SRIF antagonists to the surface of the agar plate (see L. A. Price, et al., Molecular and Cellular Biology, 15, 6188-6195, 1995, incorporated herein by reference).
In this assay, LY364 cells are grown overnight in 2 mL of synthetic complete(SC) medium (3.4 g/L YNB without amino acids and ammonium sulfate, 10 g/L ammonium sulfate and 1.4 g/L CSM-ura-trp) with glucose (2%) and without uracil and tryptophan. These cells are washed and cultured for 4 to 8 hours in 5 mL of SC medium with lactate (3%) and without uracil and tryptophan, and finally grown overnight in 5 mL of SC medium with galactose (2%) and without uracil and tryptophan. Molten (50° C.) SC agar medium with galactose (2%) and without uracil, tryptophan and histidine is adjusted to pH 6.8 with KOH, mixed with 2×10^4 cells/mL and SRIF (S-14, 10 nM) and poured into square (20×20 cm) petri dishes. Sterile filter disks are placed on the surface of the agar, and saturated with 10 μL of water or DMSO containing 5 mg/mL test peptides. After three days, the plates display a uniform cloudy background of LY264 cells growing in response to the added SRIF. […] This zone is quantified by measuring its diameter (mm), which varies according to the potency of the SRIF antagonist. Those peptides or mixtures of peptides displaying the largest zones of inhibition are further characterized.
Values are compared among samples in the same experiment, as the degree of yeast growth varies somewhat from assay to assay. For the first five sample types, in which progressively less complex mixtures of peptides are found, this assay is the primary determining factor in choosing which samples form the basis of subsequent syntheses.
Plates are read after 3 days. Samples shown in Table I in bold type are chosen for further synthesis. In Table I, all amino acids are D-amino acids and dashes represent undefined amino acid residues.

rat SSTR2 = target: T2, rat SSTR2 (Rattus norvegicus, UniProt P30680); test: cAMP accumulation in forskolin-stimulated GH4 C1/SSTR2 cells; type: cell-based; settings: GH4-C1; test peptide 2 μM; read-out: cAMP Assay, Intrinsic activity (percent reversal of SSTR2 activation by SRIF or MK678)
T2 construct: expressed in transfected cells; host or cells: GH4C1 rat pituitary tumor cells
T2 sequence (P30680 whole entry): as above
From the text: A primary effect of SRIF upon mammalian cells is the reduction of cyclic adenosine 3',5'-monophosphate(cAMP) levels, via inhibition of adenylyl cyclase. This is the basis of a common assay for SRIF agonists and antagonists, whereby SRIF agonists reduce artificially stimulated cAMP levels, and SRIF antagonists reverse the effect of SRIF. The rat pituitary tumor cell line GH4 C1 predominantly expresses SSTR2, and responds to SRIF and to forskolin, a stimulator of adenylate cyclase (see C. M. Eppler, et al., J. Biol. Chem., 267, 15603-15612, 1992, incorporated herein by reference). A highly sensitive assay for SRIF agonists and antagonists results from additionally transfecting GH4 C1 cells with the cloned rat SSTR2, (see L. A. Price, et al., Molecular and Cellular Biology, 15, 6188-6195, 1995, incorporated herein by reference). This increases the response to SRIF and provides a greater dynamic range for the measurement of SRIF antagonist activity.
Stimulation of cells. GH4 C1 /SSTR2 cells, grown in DMEM with 10% bovine serum, are released from a tissue culture dish by incubation for several minutes at 37° C. with PBS containing 0.5 mM EDTA. Cells are washed in induction buffer (PBS containing 100 μM IBMX (an inhibitor of cAMP breakdown) and 2 mM CaCl2) at room temperature, and resuspended at 2×10^6 /mL in induction buffer. Into each well of a 96-well tray are added 50 μL of a 2× concentration of stimulants in induction buffer. These include (at final concentration) 1.25 μM forskolin, 100 nM SRIF or 10 nM of the SSTR2-selective agonist MK678 and test peptides at various concentrations. To initiate stimulation of the cells, 50 μL (100,000) cells are added to each well, mixed by shaking 10 seconds on a plate shaker and placed at 37° C. for 15 minutes. Stimulation is arrested and cells are lysed by adding 15 μL 0.33N HCl to each well and incubating the plate for 30 minutes at 37° C. Samples are neutralized by addition of 15 μL 0.25N NaOH/50 mM Hepes pH 7.4. Baseline cAMP levels are determined in samples with no added forskolin or SRIF, and each treatment is performed in triplicate.
cAMP assay. To measure accumulated cAMP in the samples, a radioimmunoassay is employed. The scintillation proximity assay (SPA, Amersham, Arlington Heights, Ill.) allows the rapid measurement of ^125 I cAMP bound to a specific antibody without separating bound radioligand from free radioligand. Each of the following reagents (50 μL) are added per well in a 96-well tray: supernatants from the cell stimulation; ^125 I cAMP; SPA beads conjugated to monkey anti-rabbit IgG antibodies; and rabbit anti-cAMP antibodies. For the standard curve, known amounts of cAMP (0.2-12.8 pmol) are added in place of cell supernatants. The 96-well tray is sealed, shaken at room temperature overnight and measured for bound radioligand in a MicroBeta liquid scintillation counter (Wallac, Gaithersburg, Md.). The standard curve is determined for each experiment by performing a nonlinear regression (exponential decay) analysis of cpm measured for the cAMP standards vs. their log concentrations, and test sample values are determined by using Prism software (Graphpad Software Inc., San Diego, Calif.) and are shown in Table II and FIG. 1. FIG. I illustrates the antagonist activity of Peptide 1.
The intrinsic activity of an SRIF antagonist is the percent reversal of the SSTR2, activation by SRIF or MK678, wherein 0% is defined by cAMP levels in samples treated with forskolin plus SRIF or MK678 and 100% is the cAMP level measured after treatment with forskolin alone. Therefore, increased intrinsic activity of a test compound indicates increased antagonist activity of said test compound.
FIG. […]
An inverse agonist is a compound that is not only a pure antagonist (i.e. lacking agonist activity), but also blocks the constitutive activity of an unoccupied receptor. One indication of inverse agonist activity is the ability of a SRIF antagonist to increase cAMP levels in the absence of added SRIF. […]

SMILES	Inhibition Zone [1] [mm]	Emax (rat SSTR2) [%]	also measured
CC(C)[C@@H]1NC(=O)[C@H](CCCCN)NC(=O)[C@@H](Cc2c[nH]c3ccccc23)NC(=O)[C@H](Cc2ccc(O)cc2)NC(=O)[C@@H](NC(=O)[C@H](N)Cc2ccc3ccccc3c2)CSSC[C@@H](C(=O)N[C@H](C(N)=O)[C@@H](C)O)NC1=O [BIM 23014C, reference compound]	–	–	SGH (Male Sprague-Dawley rats; 5 μg peptide 1 group, 10 μg BIM 23014C at 60 min, sample 75 min): 7.0 ng/mL; SGH (Male Sprague-Dawley rats; 5 μg peptide 1 group, 60 min (time of 10 μg BIM 23014C dose)): 11.4 ng/mL; serum GH levels after SRIF agonist (Male Sprague-Dawley rats; 10 μg at 60 minutes): induces the expected reduction in serum GH levels; SGH (Male Sprague-Dawley rats; 25 μg peptide 1 group, 10 μg BIM 23014C at 60 min, sample 75 min): 6.8 ng/mL; SGH (Male Sprague-Dawley rats; 25 μg peptide 1 group, 60 min (time of 10 μg BIM 23014C dose)): 13.1 ng/mL; SGH (Male Sprague-Dawley rats; 50 μg peptide 1 group, 10 μg BIM 23014C at 60 min, sample 75 min): 3.5 ng/mL; SGH (Male Sprague-Dawley rats; 50 μg peptide 1 group, 60 min (time of 10 μg BIM 23014C dose)): 17.1 ng/mL
CC[C@@H](C)[C@@H](NC(=O)[C@@H](Cc1c[nH]cn1)NC(=O)[C@@H](Cc1c[nH]c2ccccc12)NC(C)=O)C(=O)N[C@H](CCCNC(=N)N)C(=O)N[C@H](Cc1c[nH]c2ccccc12)C(=O)N[C@H](Cc1ccccc1)C(N)=O [Peptide 22, w-h-i-r-w-f] (Ac-[dW][dH][dI][dR][dW][dF]-NH2)	–	27.4	–
CC[C@@H](C)[C@@H](NC(=O)[C@@H](Cc1ccc(O)cc1)NC(=O)[C@@H](Cc1c[nH]c2ccccc12)NC(C)=O)C(=O)N[C@H](CCCNC(=N)N)C(=O)N[C@H](Cc1c[nH]c2ccccc12)C(=O)N[C@H](Cc1ccccc1)C(N)=O [Peptide 23, w-y-i-r-w-f] (Ac-[dW][dY][dI][dR][dW][dF]-NH2)	–	5.64	–
CC[C@@H](C)[C@@H](NC(=O)[C@@H](Cc1c[nH]cn1)NC(=O)[C@@H](Cc1ccccc1)NC(C)=O)C(=O)N[C@H](CCCNC(=N)N)C(=O)N[C@H](Cc1c[nH]c2ccccc12)C(=O)N[C@H](Cc1ccccc1)C(N)=O [Peptide 24, f-h-i-r-w-f] (Ac-[dF][dH][dI][dR][dW][dF]-NH2)	–	65.2	–
CC[C@@H](C)[C@@H](NC(=O)[C@@H](CCCNC(=N)N)NC(=O)[C@@H](Cc1ccccc1)NC(C)=O)C(=O)N[C@H](CCCNC(=N)N)C(=O)N[C@H](Cc1c[nH]c2ccccc12)C(=O)N[C@H](Cc1ccccc1)C(N)=O [Peptide 25, f-r-i-r-w-f] (Ac-[dF][dR][dI][dR][dW][dF]-NH2)	–	10.8	–
CC[C@@H](C)[C@@H](NC(=O)[C@@H](Cc1ccccc1)NC(=O)[C@@H](Cc1c[nH]cn1)NC(C)=O)C(=O)N[C@H](CCCCN)C(=O)N[C@H](Cc1c[nH]c2ccccc12)C(=O)N[C@H](Cc1ccccc1)C(N)=O [Peptide 27, h-f-i-k-w-f] (Ac-[dH][dF][dI][dK][dW][dF]-NH2)	–	71.2	–
CC(=O)N[C@H](Cc1c[nH]cn1)C(=O)N[C@H](Cc1ccccc1)C(=O)N[C@@H](C(=O)N[C@H](CCCNC(=N)N)C(=O)N[C@H](Cc1c[nH]c2ccccc12)C(=O)N[C@H](Cc1ccccc1)C(N)=O)C(C)C [Peptide 28, h-f-v-r-w-f] (Ac-[dH][dF][dV][dR][dW][dF]-NH2)	–	71.2	–

The next lines start with results.

Inhibition Zone [1] [mm]	Emax (rat SSTR2) [%]	SMILES	also measured
15	–	CC[C@@H](C)[C@@H](NC(=O)[C@@H](Cc1ccccc1)NC(=O)[C@@H](Cc1c[nH]cn1)NC(C)=O)C(=O)N[C@H](CCCNC(=N)N)C(=O)N[C@H](Cc1c[nH]c2ccccc12)C(=O)N[C@H](C)C(N)=O [His Phe Ile Arg Trp Ala] (Ac-[dH][dF][dI][dR][dW][dA]-NH2)	–
15	–	CC[C@@H](C)[C@@H](NC(=O)[C@@H](Cc1ccccc1)NC(=O)[C@@H](Cc1c[nH]cn1)NC(C)=O)C(=O)N[C@H](CCCNC(=N)N)C(=O)N[C@H](Cc1c[nH]c2ccccc12)C(=O)N[C@H](CC(N)=O)C(N)=O [His Phe Ile Arg Trp Asn] (Ac-[dH][dF][dI][dR][dW][dN]-NH2)	–
16	–	CC[C@@H](C)[C@@H](NC(=O)[C@@H](Cc1ccccc1)NC(=O)[C@@H](Cc1c[nH]cn1)NC(C)=O)C(=O)N[C@H](CCCNC(=N)N)C(=O)N[C@H](Cc1c[nH]c2ccccc12)C(=O)N[C@H](CCC(N)=O)C(N)=O [His Phe Ile Arg Trp Gln] (Ac-[dH][dF][dI][dR][dW][dQ]-NH2)	–
13	–	CC[C@@H](C)[C@@H](NC(=O)[C@@H](Cc1ccccc1)NC(=O)[C@@H](Cc1c[nH]cn1)NC(C)=O)C(=O)N[C@H](CCCNC(=N)N)C(=O)N[C@H](Cc1c[nH]c2ccccc12)C(=O)NCC(N)=O [His Phe Ile Arg Trp Gly] (Ac-[dH][dF][dI][dR][dW]G-NH2)	–
16	–	CC[C@@H](C)[C@@H](NC(=O)[C@@H](Cc1c[nH]c2ccccc12)NC(=O)[C@@H](CCCNC(=N)N)NC(=O)[C@H](NC(=O)[C@@H](Cc1ccccc1)NC(=O)[C@@H](Cc1c[nH]cn1)NC(C)=O)[C@H](C)CC)C(N)=O [His Phe Ile Arg Trp Ile] (Ac-[dH][dF][dI][dR][dW][dI]-NH2)	–
15	–	CC[C@@H](C)[C@@H](NC(=O)[C@@H](Cc1ccccc1)NC(=O)[C@@H](Cc1c[nH]cn1)NC(C)=O)C(=O)N[C@H](CCCNC(=N)N)C(=O)N[C@H](Cc1c[nH]c2ccccc12)C(=O)N[C@H](CC(C)C)C(N)=O [His Phe Ile Arg Trp Leu] (Ac-[dH][dF][dI][dR][dW][dL]-NH2)	–
18	–	CC[C@@H](C)[C@@H](NC(=O)[C@@H](Cc1ccccc1)NC(=O)[C@@H](Cc1c[nH]cn1)NC(C)=O)C(=O)N[C@H](CCCNC(=N)N)C(=O)N[C@H](Cc1c[nH]c2ccccc12)C(=O)N[C@H](CCSC)C(N)=O [His Phe Ile Arg Trp Met] (Ac-[dH][dF][dI][dR][dW][dM]-NH2)	–
